The assay concerns the target T1, IRAK4 (Homo sapiens, UniProt Q9NWZ3).
T1 construct: Degradation of IRAK4 in OCI-LY10 was quantitatively measured using Meso Scale Discovery technology; endogenous in cells; host or cells: OCI-LY10
T1 sequence (Q9NWZ3 1-460): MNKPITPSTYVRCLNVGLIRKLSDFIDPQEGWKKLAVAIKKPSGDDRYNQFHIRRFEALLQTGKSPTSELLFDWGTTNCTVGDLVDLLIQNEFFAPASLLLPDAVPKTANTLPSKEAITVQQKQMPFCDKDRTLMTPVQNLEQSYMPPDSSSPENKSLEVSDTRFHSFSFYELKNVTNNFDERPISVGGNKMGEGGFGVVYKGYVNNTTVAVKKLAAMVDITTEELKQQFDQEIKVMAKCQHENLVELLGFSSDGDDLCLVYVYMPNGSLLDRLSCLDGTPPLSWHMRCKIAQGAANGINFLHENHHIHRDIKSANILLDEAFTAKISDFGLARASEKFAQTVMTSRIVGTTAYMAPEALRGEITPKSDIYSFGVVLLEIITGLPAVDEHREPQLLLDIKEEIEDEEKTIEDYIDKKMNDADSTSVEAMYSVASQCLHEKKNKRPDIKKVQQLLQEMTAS
As to the kind of experiment: IRAK4 MSD Degradation in OCI-LY10. It counts as cell-based. Particulars: OCI-LY10 cells, MSD. As to the method: Degradation of IRAK4 in OCI-LY10 was quantitatively measured using Meso Scale Discovery technology. […] Compounds were then added to the assay plates with a final top concentration of 1 to 10 μM in a 1:3 dilution series with total of 8 doses. The assay plates were then incubated for 4 to 24 hours at 37° C. under 5% CO2. […] To prepare MSD assay plates (Meso Scale Discovery Catalog number L15XA-3), the plates were coated with 2 μg/mL capture antibody (mouse Anti-IRAK4 antibody [2H9], ab119942) in PBS, at 40 μL/well. […] Cell lysates were then added to MSD assay plates and the plates were incubated at room temperature for 1 hour. The plates were then washed 3 times with 150 μL/well TBST buffer and 25 μL/well primary detection antibody (rabbit Anti-IRAK4 antibody [Y279], from Abcam. Catalog number ab32511, 1 μg/mL). The assay plates were then incubated at room temperature for 1 hour, washed 3 times with 150 μL/well TBST buffer and 25 μL/well secondary detection antibody, SULFO-TAG anti-rabbit antibody were added (anti-rabbit antibody from Meso Scale Discovery, Catalog number R32AB-1, 1 μg/mL). The assay plates were then incubated at room temperature for 1 hour, washed 3 times with 150 μL/well TBST buffer, and 150 μL/well MSD reading buffer (Meso Scale Discovery catalog number R92TC-2) was added. The plates were then analyzed by a MSD reader (Meso Scale Discovery, Model Quick Plex SQ 120). The data was then analyzed by software Prism 7.0 from GraphPad and the dose-depended IRAK4 degradation were fit using a three-parameter logistic equation to calculate DC50.
The letter codes for IRAK4 DC50 include: A (<0.01 μM); B (0.01 to <0.1 μM); C (0.1 to 0.2 μM); and D (>0.2 μM or not tested).

[1] abbreviates: 4 hrs incubation, read-out: IRAK4 degradation in OCI-LY10 at 4 hrs: DC50.
Setting [2] is: 24 hrs incubation, read-out: IRAK4 degradation in OCI-LY10 at 24 hrs: DC50.

Each structure is given as a SMILES string. Where two headings read alike, the source gives them in different places. Some results are limits rather than exact numbers.

On to `Cn1c(=O)n(C2CCC(=O)NC2=O)c2cccc(C#CCN3CCN(C[C@H]4CC[C@H](n5cc(NC(=O)c6cnn7ccc(N8C[C@H]9C[C@@H]8CO9)nc67)c(C(F)(F)F)n5)CC4)CC3)c21` (relative stereo) [I-112], for which the DC50 (commonly the concentration giving 50% degradation) under setting [1] is 0.01 to 0.1 µM and the DC50 under setting [2] is over 0.2 µM.
With `Cn1c(=O)n(C2CCC(=O)NC2=O)c2cccc(CCCN3CCN(C[C@H]4CC[C@H](n5cc(NC(=O)c6cnn7ccc(N8C[C@H]9C[C@@H]8CO9)nc67)c(C(F)F)n5)CC4)CC3)c21` (relative stereo) [I-114], the DC50 by setting is: under setting [1], under 0.01 µM; under setting [2], over 0.2 µM.
In the same order, the values of `Cc1nn([C@H]2CC[C@H](CN3CCN(CC#Cc4cccc5c4n(C)c(=O)n5C4CCC(=O)NC4=O)CC3)CC2)cc1NC(=O)c1cnn2ccc(N3C[C@H]4C[C@@H]3CO4)nc12` (relative stereo) [I-115] are 0.01 to 0.1 µM and over 0.2 µM.
In the case of `Cn1c(=O)n(C2CCC(=O)NC2=O)c2cccc(C#CCN3CCN(C[C@H]4CC[C@H](n5cc(NC(=O)c6cnn7ccc(N8C[C@H]9C[C@@H]8CO9)nc67)c(Cl)n5)CC4)CC3)c21` (relative stereo) [I-117], the half-maximal degradation concentration (DC50) by setting is: under setting [1], over 0.2 µM; under setting [2], 0.01 to 0.1 µM.
Regarding `C[C@H]1CN(C[C@H]2CC[C@H](n3cc(NC(=O)c4cnn5ccc(N6C[C@H]7C[C@@H]6CO7)nc45)c(C(F)F)n3)CC2)CC[C@@H]1OCC#Cc1cccc2c1n(C)c(=O)n2[C@H]1CCC(=O)NC1=O` (single isomer, unassigned) [I-67], the DC50 was under 0.01 µM under setting [1] and over 0.2 µM under setting [2].
On to `Cn1c(=O)n([C@@H]2CCC(=O)NC2=O)c2cccc(C#CCN3CCN(C[C@H]4CC[C@H](n5cc(NC(=O)c6cnn7ccc(N8C[C@H]9C[C@@H]8CO9)nc67)c(C(F)F)n5)CC4)CC3)c21` (single isomer, unassigned) [I-71], for which the 50% degradation concentration (DC50) was 0.01 to 0.1 µM under setting [1] and over 0.2 µM under setting [2].
In the same order, the values of `Cn1c(=O)n([C@H]2CCC(=O)NC2=O)c2cccc(C#CCN3CCN(C[C@H]4CC[C@H](n5cc(NC(=O)c6cnn7ccc(N8C[C@H]9C[C@@H]8CO9)nc67)c(C(F)F)n5)CC4)CC3)c21` (single isomer, unassigned) [I-72] are under 0.01 µM and over 0.2 µM.
With `C[C@H]1CN(C[C@H]2CC[C@H](n3cc(NC(=O)c4cnn5ccc(N6C[C@H]7C[C@@H]6CO7)nc45)c(C(F)F)n3)CC2)CC[C@@H]1OCC#Cc1cccc2c1n(C)c(=O)n2[C@@H]1CCC(=O)NC1=O` (single isomer, unassigned) [I-73], the half-maximal degradation concentration (DC50) by setting is: under setting [1], 0.01 to 0.1 µM; under setting [2], over 0.2 µM.
In the same order, the values of `Cn1c(=O)n(C2CCC(=O)NC2=O)c2cccc(N3CCN(C4CCN([C@H]5CC[C@H](n6cc(NC(=O)c7cnn8ccc(N9C[C@H]%10C[C@@H]9CO%10)nc78)c(C(F)F)n6)CC5)CC4)CC3)c21` (single isomer, unassigned) [I-201] are under 0.01 µM and over 0.2 µM.
Take `Cn1c(=O)n(C2CCC(=O)NC2=O)c2cccc(N3CCN(C4CCN([C@H]5CC[C@@H](n6cc(NC(=O)c7cnn8ccc(N9C[C@H]%10C[C@@H]9CO%10)nc78)c(C(F)F)n6)CC5)CC4)CC3)c21` (single isomer, unassigned) [I-425]: the DC50 under setting [1] was under 0.01 µM and the DC50 under setting [2] is over 0.2 µM.
In the same order, the values of `Cn1c(=O)n(C2CCC(=O)NC2=O)c2cccc([C@@H]3CCN(C[C@H]4CC[C@H](n5cc6cc(NC(=O)c7cccc(C(F)(F)F)n7)ncc6n5)CC4)C[C@H]3F)c21` (single isomer, unassigned) [I-656] are over 0.2 µM and under 0.01 µM.
In the same order, the values of `Cn1c(=O)n(C2CCC(=O)NC2=O)c2cccc(C3CN(C4CCN([C@H]5CC[C@H](n6cc(NC(=O)c7cnn8ccc(N9C[C@H]%10C[C@@H]9CO%10)nc78)c(C(F)F)n6)CC5)CC4(F)F)C3)c21` (single isomer, unassigned) [I-736] are over 0.2 µM and under 0.01 µM.
In the same order, the values of `Cn1c(=O)n(C2CCC(=O)NC2=O)c2ccc(N3CC(CO[C@H]4CCN(C[C@H]5CC[C@H](n6cc(NC(=O)c7cnn8ccc(N9C[C@H]%10C[C@@H]9CO%10)nc78)c(C(F)F)n6)CC5)C[C@H]4F)C3)c(F)c21` (single isomer, unassigned) [I-738] are over 0.2 µM and under 0.01 µM.
Regarding `Cn1c(=O)n(C2CCC(=O)NC2=O)c2cccc([C@H]3CCN(C[C@H]4CC[C@H](n5cc6cc(NC(=O)c7cccc(C(F)(F)F)n7)ncc6n5)CC4)C[C@H]3F)c21` (single isomer, unassigned) [I-781], the DC50 runs as follows: under setting [1], over 0.2 µM; under setting [2], over 0.2 µM.
Regarding `COc1ccc2c(c1C#CCO[C@@H]1CCN(C[C@H]3CC[C@H](n4cc(NC(=O)c5cnn6ccc(N7C[C@H]8C[C@@H]7CO8)nc56)c(C(F)F)n4)CC3)C[C@@H]1F)n(C)c(=O)n2C1CCC(=O)NC1=O` (stereo partly drawn) [I-1], the DC50 is 0.01 to 0.1 µM under setting [1] and over 0.2 µM under setting [2].
Turning to `COc1ccc2c(c1C#CCOC1CCN(C[C@H]3CC[C@H](n4cc(NC(=O)c5cnn6ccc(N7C[C@H]8C[C@@H]7CO8)nc56)c(C(F)F)n4)CC3)CC1)n(C)c(=O)n2C1CCC(=O)NC1=O` (stereo partly drawn) [I-2], the DC50 under setting [1] was under 0.01 µM and the DC50 under setting [2] was over 0.2 µM.
On to `Cn1c(=O)n(C2CCC(=O)NC2=O)c2cccc([C@]34C[C@](COC5CCN(C[C@H]6CC[C@H](n7cc(NC(=O)c8cnn9ccc(N%10C[C@H]%11C[C@@H]%10CO%11)nc89)c(C(F)F)n7)CC6)CC5)(C3)C4)c21` (stereo partly drawn) [I-3], for which the 50% degradation concentration (DC50) is under 0.01 µM under setting [1] and over 0.2 µM under setting [2].
In the case of `O=C1CCC(n2c(=O)n(C3CC3)c3c(C#CCN4CCN(C[C@H]5CC[C@H](n6cc(NC(=O)c7cnn8ccc(N9C[C@H]%10C[C@@H]9CO%10)nc78)c(C(F)F)n6)CC5)CC4)cccc32)C(=O)N1` (stereo partly drawn) [I-4], the DC50 by setting is: under setting [1], under 0.01 µM; under setting [2], over 0.2 µM.
Consider `Cn1c(=O)n(C2CCC(=O)NC2=O)c2cccc(C#CCN3CCCN(C[C@H]4CC[C@H](n5cc(NC(=O)c6cnn7ccc(N8C[C@H]9C[C@@H]8CO9)nc67)c(C(F)F)n5)CC4)CC3)c21` (stereo partly drawn) [I-5], for which the DC50 was under 0.01 µM under setting [1] and over 0.2 µM under setting [2].
Consider `O=C1CCN(c2cncc3c2cccc3[C@H]2C[C@@H](CN3CCN(C[C@H]4CC[C@H](n5cc(NC(=O)c6cnn7ccc(N8C[C@H]9C[C@@H]8CO9)nc67)c(C(F)F)n5)CC4)CC3)C2)C(=O)N1` [I-6], for which the DC50 under setting [1] was under 0.01 µM and the DC50 under setting [2] is over 0.2 µM.
`Cn1c(=O)n(C2CCC(=O)NC2=O)c2cccc([C@]34C[C@](CN5CCN(C[C@H]6CC[C@H](n7cc(NC(=O)c8cnn9ccc(N%10C[C@H]%11C[C@@H]%10CO%11)nc89)c(C(F)F)n7)CC6)CC5)(C3)C4)c21` (stereo partly drawn) [I-8]: the DC50 reads like this: under setting [1], under 0.01 µM; under setting [2], over 0.2 µM.
Take `C[C@H]1CN(C[C@H]2CC[C@H](n3cc(NC(=O)c4cnn5ccc(N6C[C@H]7C[C@@H]6CO7)nc45)c(C(F)F)n3)CC2)CCN1CC#Cc1cccc2c1n(C)c(=O)n2C1CCC(=O)NC1=O` (stereo partly drawn) [I-9]: the DC50 under setting [1] was 0.01 to 0.1 µM and the half-maximal degradation concentration (DC50) under setting [2] is over 0.2 µM.
In the same order, the values of `O=C1CCN(c2cncc3c(C#CCOC4CCN(C[C@H]5CC[C@H](n6cc(NC(=O)c7cnn8ccc(N9C[C@H]%10C[C@@H]9CO%10)nc78)c(C(F)F)n6)CC5)CC4)cccc23)C(=O)N1` [I-10] are under 0.01 µM and over 0.2 µM.
With `O=C1CCN(c2cncc3cc(C#CCOC4CCN(C[C@H]5CC[C@H](n6cc(NC(=O)c7cnn8ccc(N9C[C@H]%10C[C@@H]9CO%10)nc78)c(C(F)F)n6)CC5)CC4)ccc23)C(=O)N1` [I-11], the 50% degradation concentration (DC50) reads like this: under setting [1], over 0.2 µM; under setting [2], over 0.2 µM.

Values taken from patent US12091411B2, “IRAK degraders and uses thereof” (Kymera Therapeutics, Inc., priority 2022, dated 2024).
